From patent US10519152B2, “Compounds and their use in treating cancer” (AstraZeneca AB, priority 2017, dated 2019)

These molecules were tested against T1, recombinant human Estrogen Receptor alpha ligand binding domain, residues 307-554 (ER alpha-LBD (GST)) (Homo sapiens, UniProt P03372) (assay: ERα binding assay (LanthaScreen TR-FRET competition)). Conditions: TR-FRET competition with Fluormone ES2 tracer, 4 hours at room temperature; single experiment or average of two or more.
T1 construct: made in house
T1 sequence (P03372 307-554): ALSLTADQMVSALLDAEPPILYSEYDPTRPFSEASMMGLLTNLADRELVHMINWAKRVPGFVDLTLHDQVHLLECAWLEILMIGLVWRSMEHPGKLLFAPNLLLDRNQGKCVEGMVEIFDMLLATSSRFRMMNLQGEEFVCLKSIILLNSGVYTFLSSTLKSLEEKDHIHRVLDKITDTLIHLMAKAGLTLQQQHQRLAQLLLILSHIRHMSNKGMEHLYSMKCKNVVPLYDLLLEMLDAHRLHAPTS

SMILES | IC50
Cc1ncsc1-c1ccc(CNC(=O)[C@@H]2C[C@@H](O)CN2C(=O)[C@@H](NC(=O)COCC(F)(F)COCCCOc2cc(F)c([C@@H]3c4[nH]c5ccccc5c4C[C@@H](C)N3CC(C)(C)F)c(F)c2)C(C)(C)C)cc1 [Example 125, (2S,4R)-1-((S)-2-(2-(3-(3-(3,5-Difluoro-4-((1R,3R)-2-(2-fluoro-2-methylpropyl)-3-methyl-2,3,4,9-tetrahydro-1H-pyrido[3,4-b]indol-1-yl)phenoxy)propoxy)-2,2-difluoropropoxy)acetamido)-3,3-dimethylbutanoyl)-4-hydroxy-N-(4-(4-methylthiazol-5-yl)benzyl)pyrrolidine-2-carboxamide] | 1 nM
Cc1ncsc1-c1ccc(CNC(=O)[C@@H]2C[C@@H](O)CN2C(=O)[C@@H](NC(=O)COCCOCCC(F)(F)CCOc2cc(F)c([C@@H]3c4[nH]c5ccccc5c4C[C@@H](C)N3CC(C)(C)F)c(F)c2)C(C)(C)C)cc1 [Example 127, (2S,4R)-1-((S)-2-(2-(2-((5-(3,5-Difluoro-4-((R,3R)-2-(2-fluoro-2-methylpropyl)-3-methyl-2,3,4,9-tetrahydro-1H-pyrido[3,4-b]indol-1-yl)phenoxy)-3,3-difluoropentyl)oxy)ethoxy)acetamido)-3,3-dimethylbutanoyl)-4-hydroxy-N-(4-(4-methylthiazol-5-yl)benzyl)pyrrolidine-2-carboxamide] | 0.5 nM
Cc1ncsc1-c1ccc(CNC(=O)[C@@H]2C[C@@H](O)CN2C(=O)[C@@H](NC(=O)COCCOCCCCOc2cc(F)c([C@@H]3c4[nH]c5ccccc5c4C[C@@H](C)N3CC(C)(C)F)c(F)c2)C(C)(C)C)cc1 [Example 128, (2S,4R)-1-((S)-2-(2-(2-(4-(3,5-Difluoro-4-((1R,3R)-2-(2-fluoro-2-methylpropyl)-3-methyl-2,3,4,9-tetrahydro-1H-pyrido[3,4-b]indol-1-yl)phenoxy)butoxy)ethoxy)acetamido)-3,3-dimethylbutanoyl)-4-hydroxy-N-(4-(4-methylthiazol-5-yl)benzyl)pyrrolidine-2-carboxamide] | 0.6 nM
Cc1ncsc1-c1ccc(CNC(=O)[C@@H]2C[C@@H](O)CN2C(=O)[C@@H](NC(=O)COCCCOCCCCOc2cc(F)c([C@@H]3c4[nH]c5ccccc5c4C[C@@H](C)N3CC(C)(C)F)c(F)c2)C(C)(C)C)cc1 [Example 129, (2S,4R)-1-((S)-2-(2-(3-(4-(3,5-Difluoro-4-((1R,3R)-2-(2-fluoro-2-methylpropyl)-3-methyl-2,3,4,9-tetrahydro-1H-pyrido[3,4-b]indol-1-yl)phenoxy)butoxy)propoxy)acetamido)-3,3-dimethylbutanoyl)-4-hydroxy-N-(4-(4-methylthiazol-5-yl)benzyl)pyrrolidine-2-carboxamide] | 1 nM
Cc1ncsc1-c1ccc(CNC(=O)[C@@H]2C[C@@H](O)CN2C(=O)[C@@H](NC(=O)COCCC(F)(F)CCOc2cc(F)c([C@@H]3c4[nH]c5ccccc5c4C[C@@H](C)N3CC(C)(C)F)c(F)c2)C(C)(C)C)cc1 [Example 130, (2S,4R)-1-((S)-2-(2-((5-(3,5-Difluoro-4-((1R,3R)-2-(2-fluoro-2-methylpropyl)-3-methyl-2,3,4,9-tetrahydro-1H-pyrido[3,4-b]indol-1-yl)phenoxy)-3,3-difluoropentyl)oxy)acetamido)-3,3-dimethylbutanoyl)-4-hydroxy-N-(4-(4-methylthiazol-5-yl)benzyl)pyrrolidine-2-carboxamide] | 0.9 nM
Cc1ncsc1-c1ccc(CNC(=O)[C@@H]2C[C@@H](O)CN2C(=O)[C@@H](NC(=O)CNCCC(F)(F)CCOc2cc(F)c([C@@H]3c4[nH]c5ccccc5c4C[C@@H](C)N3CC(C)(C)F)c(F)c2)C(C)(C)C)cc1 [Example 131, (2S,4R)-1-((S)-2-(2-((5-(3,5-Difluoro-4-((1R,3R)-2-(2-fluoro-2-methylpropyl)-3-methyl-2,3,4,9-tetrahydro-1H-pyrido[3,4-b]indol-1-yl)phenoxy)-3,3-difluoropentyl)amino)acetamido)-3,3-dimethylbutanoyl)-4-hydroxy-N-(4-(4-methylthiazol-5-yl)benzyl)pyrrolidine-2-carboxamide] | 1.6 nM
Cc1ncsc1-c1ccc(CNC(=O)[C@@H]2C[C@@H](O)CN2C(=O)[C@@H](NC(=O)COCc2cccc(COc3cc(F)c([C@@H]4c5[nH]c6ccccc6c5C[C@@H](C)N4CC(C)(C)F)c(F)c3)n2)C(C)(C)C)cc1 [Example 132, (2S,4R)-1-((S)-2-(2-((6-((3,5-Difluoro-4-((1R,3R)-2-(2-fluoro-2-methylpropyl)-3-methyl-2,3,4,9-tetrahydro-1H-pyrido[3,4-b]indol-1-yl)phenoxy)methyl)pyridin-2-yl)methoxy)acetamido)-3,3-dimethylbutanoyl)-4-hydroxy-N-(4-(4-methylthiazol-5-yl)benzyl)pyrrolidine-2-carboxamide] | 0.5 nM
Cc1ncsc1-c1ccc(CNC(=O)[C@@H]2C[C@@H](O)CN2C(=O)[C@@H](NC(=O)COCc2ccnc(COc3cc(F)c([C@@H]4c5[nH]c6ccccc6c5C[C@@H](C)N4CC(C)(C)F)c(F)c3)c2)C(C)(C)C)cc1 [Example 134, (2S,4R)-1-((S)-2-(2-((2-((3,5-Difluoro-4-((1R,3R)-2-(2-fluoro-2-methylpropyl)-3-methyl-2,3,4,9-tetrahydro-1H-pyrido[3,4-b]indol-1-yl)phenoxy)methyl)pyridin-4-yl)methoxy)acetamido)-3,3-dimethylbutanoyl)-4-hydroxy-N-(4-(4-methylthiazol-5-yl)benzyl)pyrrolidine-2-carboxamide] | 0.6 nM
Cc1ncsc1-c1ccc(CNC(=O)[C@@H]2C[C@@H](O)CN2C(=O)[C@@H](NC(=O)COCCCCCOCCCOc2cc(F)c([C@@H]3c4[nH]c5ccccc5c4C[C@@H](C)N3CC(C)(C)F)c(F)c2)C(C)(C)C)cc1 [Example 136, (2S,4R)-1-((S)-2-(2-((5-(3-(3,5-Difluoro-4-((1R,3R)-2-(2-fluoro-2-methylpropyl)-3-methyl-2,3,4,9-tetrahydro-1H-pyrido[3,4-b]indol-1-yl)phenoxy)propoxy)pentyl)oxy)acetamido)-3,3-dimethylbutanoyl)-4-hydroxy-N-(4-(4-methylthiazol-5-yl)benzyl)pyrrolidine-2-carboxamide] | 1.2 nM
Cc1ncsc1-c1ccc([C@H](C)NC(=O)[C@@H]2C[C@@H](O)CN2C(=O)[C@@H](NC(=O)COCCCOCCCCCOc2cc(F)c([C@@H]3c4[nH]c5ccccc5c4C[C@@H](C)N3CC(C)(C)F)c(F)c2)C(C)(C)C)cc1 [Example 137, (2S,4R)-1-((S)-2-(2-(3-((5-(3,5-Difluoro-4-((R,3R)-2-(2-fluoro-2-methylpropyl)-3-methyl-2,3,4,9-tetrahydro-1H-pyrido[3,4-b]indol-1-yl)phenoxy)pentyl)oxy)propoxy)acetamido)-3,3-dimethylbutanoyl)-4-hydroxy-N—((S)-1-(4-(4-methylthiazol-5-yl)phenyl)ethyl)pyrrolidine-2-carboxamide] | 0.8 nM
Cc1ncsc1-c1ccc(CNC(=O)[C@@H]2C[C@@H](O)CN2C(=O)[C@@H](NC(=O)COCCCOCCCCCOc2cc(F)c([C@@H]3c4[nH]c5ccccc5c4C[C@@H](C)N3CC(C)(C)F)c(F)c2)C(C)(C)C)cc1 [Example 138, (2S,4R)-1-((S)-2-(2-(3-((5-(3,5-Difluoro-4-((R,3R)-2-(2-fluoro-2-methylpropyl)-3-methyl-2,3,4,9-tetrahydro-1H-pyrido[3,4-b]indol-1-yl)phenoxy)pentyl)oxy)propoxy)acetamido)-3,3-dimethylbutanoyl)-4-hydroxy-N-(4-(4-methylthiazol-5-yl)benzyl)pyrrolidine-2-carboxamide] | 0.6 nM
